These results are taken from patent US7557133B2, “Caspase inhibitors containing isoxazoline ring” (LG Life Sciences Ltd., priority 2003, dated 2009).

This assay has as its system LPS-induced acute hepatitis. As to the kind of experiment: Therapeutic effect for LPS-induced acute hepatitis in mouse (plasma ALT). It is filed as in vivo. As for the experimental part:
Female Balb/c mice (6 weeks, Charles River Laboratory, Osaka, Japan) were kept under the conditions of 22 °C, 55% of relative humidity, and light-darkness cycle of 12 hours. Food and water were supplied ad libitum. In pyrogen-free saline were dissolved LPS (lipopolysaccaride) and D-galactosamine in concentrations of 0.4 mg/ml and 280 mg/ml, respectively, and their 1:1 mixture was injected to mice in the amount of 5 ml/kg. Immediately after the injection of LPS and D-galactosamine, vehicle (a mixture of PEG400:ethanol:Tween80=15:7.5:2.5 was diluted by five times with saline) wherein the test compound is dissolved or the vehicle alone was intraperitoneally injected into the mice. After 8 hours from the drug injection, blood samples were obtained from their hearts.
The plasma ALT activity was determined for the blood samples obtained in Step 1 using ALT assay kit (Asan Pharm. Co., Seoul, Korea) according to the manufacturer's instruction.

For orientation: ED50 means the dose that gives a 50% effect, or the effect in half of the subjects. For the compound `CC(C)[C@@]1(C(=O)NC(CC(=O)O)C(=O)CF)CC(c2nccc3ccccc23)=NO1` (stereo partly drawn) [Iii, 5-Fluoro-3-({[(5R)-5-isopropyl-3-(1-isoquinolinyl)-4,5-dihydro-5-isoxazolyl]carbonyl}amino)-4-oxopentanoic acid], where the note is “in vivo”, the “increased activity against LPS-induced acute hepatitis model (mouse) compared with LB84068MP” value is given as “about 100 times”. In addition, the ED50 (ip, LPS and D-galactosamine, intraperitoneally injected, plasma ALT after 8 hours, read-out: ED50 (LPS + Gal)) was 0.01 mg/kg.
